ChEMBL document CHEMBL1140871, “Diaryl-dithiolanes and -isothiazoles: COX-1/COX-2 and 5-LOX-inhibitory, *OH scavenging and anti-adhesive activities” (Bioorg Med Chem, 2009)

Tests used:
[1] = Inhibition of 5LOX in bovine polymorphonuclear leucocytes assessed as leukotriene B4 formation; assay type: cell-based; conditions: Bos taurus
[2] = target: T1, Prostaglandin G/H synthase 2 (Homo sapiens, UniProt P35354); experiment: Inhibition of COX2 in LPS-stimulated human blood
T1 sequence (P35354 whole entry): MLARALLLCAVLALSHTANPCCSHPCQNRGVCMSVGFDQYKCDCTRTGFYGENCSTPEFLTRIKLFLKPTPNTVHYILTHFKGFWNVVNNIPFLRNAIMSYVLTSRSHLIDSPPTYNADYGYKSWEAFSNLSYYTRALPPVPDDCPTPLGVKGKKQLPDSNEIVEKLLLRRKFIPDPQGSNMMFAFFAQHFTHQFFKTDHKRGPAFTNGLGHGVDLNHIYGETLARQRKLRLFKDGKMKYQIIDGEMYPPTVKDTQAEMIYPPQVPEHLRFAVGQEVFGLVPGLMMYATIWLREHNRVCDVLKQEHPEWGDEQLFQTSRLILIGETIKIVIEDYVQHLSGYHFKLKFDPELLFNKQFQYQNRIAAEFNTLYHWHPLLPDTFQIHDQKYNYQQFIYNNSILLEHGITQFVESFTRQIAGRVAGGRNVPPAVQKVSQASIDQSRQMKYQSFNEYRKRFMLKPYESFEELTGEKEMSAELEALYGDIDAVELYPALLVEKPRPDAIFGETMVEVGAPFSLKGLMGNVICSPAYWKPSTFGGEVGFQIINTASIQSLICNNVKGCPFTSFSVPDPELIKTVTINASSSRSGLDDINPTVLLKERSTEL

[3] = target: T2, Prostaglandin G/H synthase 1 (Bos taurus, UniProt O62664)
T2 sequence (O62664 whole entry): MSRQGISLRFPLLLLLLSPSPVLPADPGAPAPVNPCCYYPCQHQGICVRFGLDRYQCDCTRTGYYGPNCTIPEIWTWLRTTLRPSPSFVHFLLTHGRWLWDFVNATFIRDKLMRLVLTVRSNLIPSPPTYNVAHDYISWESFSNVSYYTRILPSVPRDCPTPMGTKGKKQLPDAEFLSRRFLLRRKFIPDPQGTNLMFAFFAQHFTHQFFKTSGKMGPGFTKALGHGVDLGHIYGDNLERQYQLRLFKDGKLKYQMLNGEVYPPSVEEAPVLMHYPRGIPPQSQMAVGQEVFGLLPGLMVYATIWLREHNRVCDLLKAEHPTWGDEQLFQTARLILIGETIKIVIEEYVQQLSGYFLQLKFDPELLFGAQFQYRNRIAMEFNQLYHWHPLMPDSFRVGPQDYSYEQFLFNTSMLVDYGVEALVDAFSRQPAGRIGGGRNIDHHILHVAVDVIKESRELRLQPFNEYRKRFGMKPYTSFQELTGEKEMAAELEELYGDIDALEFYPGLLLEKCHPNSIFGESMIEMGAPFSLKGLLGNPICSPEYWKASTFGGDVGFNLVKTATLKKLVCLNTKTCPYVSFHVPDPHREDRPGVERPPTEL
Description: Inhibition of COX1 in bovine platelets assessed as formation of 12-hydroxyheptadecatrienoic acid by HPLC

[4] = species on record: Bos taurus; conditions: 10 uM
Description: Inhibition of 5LOX in bovine polymorphonuclear leucocytes assessed as leukotriene B4 formation at 10 uM

[5] = system: MONO-MAC-6; experiment: Inhibition of TNF-alpha-stimulated adhesion of human MM6 cells to BAEC at 100 uM by static assay relative to control; assay type: functional
[6] = system: MONO-MAC-6; experiment: Inhibition of TNF-alpha-stimulated adhesion of human MM6 cells to BAEC at 30 uM by static assay relative to control; assay type: functional
[7] = system: Mus musculus; experiment: Reduction of CD11b protein expression on neutrophils in BALB/c mouse compound 48/80-induced peritonitis model at 50 mg/kg, ip administered 1 hr before compound 48/80 challenge; assay type: functional; design: scale not given: the % may be the effect or the level left; conditions: route intraperitoneal
[8] = Cytotoxicity against BALB/c mouse polymorphonuclear leukocytes assessed as cell viability after 6 hrs by trypan blue exclusion assay; conditions: read-out: Activity
[9] = system: Mus musculus; experiment: Effect on compound 48/80-induced leukocyte recruitment in BALB/c mouse peritonitis model assessed as reduction in polymorphonuclear leucocyte count in peritoneal cavity at 50 mg/kg, ip administered 1 hr before compound 48/80 challenge; assay type: functional; design: scale not given: the % may be the effect or the level left; conditions: route intraperitoneal
[10] = system: MONO-MAC-6; experiment: Inhibition of TNF-alpha-stimulated adhesion of human MM6 cells to BAEC at 40 uM by static assay relative to control; conditions: MONO-MAC-6, read-out: INH

Row | Compound | IC50 [1] [µM] | IC50 [2] [µM] | IC50 [3] [µM] | also measured
1 | COc1ccc(-c2ssc(=O)c2-c2ccc(OC)cc2)cc1 | > 50 | 1 | 0.0003 | 
2 | CS(=O)(=O)c1ccc(-c2ssc(=O)c2-c2ccccc2)cc1 | > 50 | 1.1 | 8 | inhibition [4]: 13%
3 | Cc1ccc(-c2ssc(=S)c2-c2ccc(S(C)(=O)=O)cc2)cc1 | > 50 | > 50 | 0.6 | inhibition at 100 µM [5]: 26%
4 | COc1ccc(-c2cnsc2-c2ccc(Cl)cc2)cc1 | 50 |  | 0.07 | 
5 | COc1ccc(-c2ssc(=S)c2-c2ccc(OC)cc2)cc1 | 10 | 20 | 0.03 | 
6 | CC1(C)Cc2c(-c3ccccc3)c(-c3ccc(Cl)cc3)c(CC(=O)O)n2C1 [LICOFELONE] | 0.189 |  | 0.2 | inhibition at 30 µM [6]: 56%
7 | COc1ccc(-c2sncc2-c2ccc(Cl)cc2)cc1 | 20 | > 50 | 0.02 | 
8 | CS(=O)(=O)c1ccc(-c2c(-c3ccccc3)ssc2=S)cc1 | > 50 | > 50 | 20 | inhibition at 100 µM [5]: 38%
9 | O=C(O)Cc1ccccc1Nc1c(Cl)cccc1Cl [DICLOFENAC] | > 50 |  |  | 
10 | CS(=O)(=O)c1ccc(-c2ssc(=S)c2-c2ccc(F)cc2)cc1 | 20 | > 50 | > 50 | inhibition at 100 µM [5]: 85%
11 | Oc1ccc(-c2ssc(=S)c2-c2ccc(O)cc2)cc1 | 6 | > 50 | 20 | inhibition at 100 µM [5]: 54%
12 | COc1ccc(-c2cnsc2-c2ccc(OC)cc2)cc1 | 20 | 0.8 | 0.003 | 
13 | Cc1ccc(-c2sncc2-c2ccc(Cl)cc2)cc1 | > 50 |  | 0.2 | 
14 | Oc1ccc(-c2cnsc2-c2ccc(O)cc2)cc1 | > 50 | > 50 | 1 | 
15 | CS(=O)(=O)c1ccc(-c2ssc(=S)c2-c2ccccc2)cc1 | 3 | > 50 |  | inhibition at 100 µM [5]: 9%
16 | Cc1ccc(-c2cnsc2-c2ccc(Cl)cc2)cc1 | 50 | > 50 | 0.04 | 
17 | Cc1ccc(-c2ssc(=S)c2-c2ccc(Cl)cc2)cc1 | > 50 | 50 | 0.006 | 
18 | CC(Cc1ccc(O)c(O)c1)C(C)Cc1ccc(O)c(O)c1 (stereo not drawn) [NORDIHYDROGUAIARETIC ACID] | 1 | > 50 | 50 | 
19 | Cc1ccc(-c2ssc(=O)c2-c2ccc(Cl)cc2)cc1 | > 50 | > 50 | 0.02 | 
20 | Cc1ccc(-c2c(-c3ccc(S(C)(=O)=O)cc3)ssc2=S)cc1 | 9 | 9 | 7 | Activity [7]: 40%; viability at 6 h [8]: 94%; Activity [9]: 49%; inhibition at 100 µM [5]: 71%
21 | Clc1ccc(-c2cnsc2-c2ccc(Cl)cc2)cc1 |  | 4 | 0.1 | 
22 | Cc1ccc(-c2c(-c3ccc(Cl)cc3)ssc2=S)cc1 | 20 | > 50 | 2 | 
23 | CS(=O)(=O)c1ccc(-c2c(-c3ccccc3)ssc2=O)cc1 | > 50 | > 50 | 8 | 
24 | CS(=O)(=O)c1ccc(-c2sncc2-c2ccc(F)cc2)cc1 | 10 | 9 | 50 | 
25 | Cc1ccc(-c2cc(C(F)(F)F)nn2-c2ccc(S(N)(=O)=O)cc2)cc1 [CELECOXIB] |  |  |  | inhibition at 40 µM [10]: 85%
26 | COc1ccc(-c2sncc2-c2ccc(C)cc2)cc1 | 8 | > 50 | 0.01 | 
27 | Cc1ccc(-c2c(-c3ccc(Cl)cc3)ssc2=O)cc1 | > 50 | > 50 | 0.2 | 
